Where “and” joins values, the source holds several entries; their conditions need not be identical. Equal entries are not always repeated.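 Five concentrations, 48 hours, 96-well plates. Here, GI50 denotes the concentration required for 50% inhibition of growth. TGI denotes the concentration required for complete inhibition of growth.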
Assays:
Test in all cases: growth of human tumour cells (NCI), 48 h
HOP-92 NSCLC = system: HOP-92 NSCLC
CAKI-1 renal = system: CAKI-1 renal
CCRF-CEM leukemia = system: CCRF-CEM leukemia
HCC-2998 colon = system: HCC-2998 colon
COLO 205 colon = system: COLO 205 colon
HT29 colon = system: HT29 colon
SF-295 CNS = system: SF-295 CNS
LOX IMVI melanoma = system: LOX IMVI melanoma
M19-MEL melanoma = system: M19-MEL melanoma
RPMI-8226 leukemia = system: RPMI-8226 leukemia
RXF 393 renal = system: RXF 393 renal
SN12C renal = system: SN12C renal
U251 CNS = system: U251 CNS
SNB-75 CNS = system: SNB-75 CNS
XF 498 CNS = system: XF 498 CNS
KM20L2 colon = system: KM20L2 colon
DLD-1 colon = system: DLD-1 colon
SNB-19 CNS = system: SNB-19 CNS
HL-60(TB) leukemia = system: HL-60(TB) leukemia
DMS 114 small cell lung = system: DMS 114 small cell lung
SK-MEL-5 melanoma = system: SK-MEL-5 melanoma
K-562 leukemia = system: K-562 leukemia
A498 renal = system: A498 renal
DMS 273 small cell lung = system: DMS 273 small cell lung
786-0 renal = system: 786-0 renal
SNB-78 CNS = system: SNB-78 CNS
UACC-62 melanoma = system: UACC-62 melanoma

Question: Which GI50 (HOP-92 NSCLC) does the source give for `COc1cc(C2c3cc4c(cc3[C@@H](NC3CCN(Cc5ccccc5)CC3)C3COC(=O)[C@H]23)OCO4)cc(OC)c1O` (some centres not stated) here?
Answer: 143 nM and 26 nM

Question: What about the TGI (HOP-92 NSCLC) of the same molecule?
Answer: 730 nM and 93.4 nM

Question: What about the GI50 (CAKI-1 renal) of the same molecule?
Answer: 37.2 nM and 277 nM

Question: What about the TGI (CAKI-1 renal) of the same molecule?
Answer: 694 nM and 2000 nM

Question: What about the TGI (CCRF-CEM leukemia) of the same molecule?
Answer: 232 nM and 120 nM

Question: And the TGI (HCC-2998 colon)?
Answer: 1130 nM and 427 nM

Question: And the GI50 (COLO 205 colon)?
Answer: 372 nM and 179 nM

Question: And the TGI (HT29 colon)?
Answer: 1930 nM and 410 nM

Question: What about the TGI (SF-295 CNS) of the same molecule?
Answer: 498 nM and 752 nM

Question: What about the GI50 (LOX IMVI melanoma) of the same molecule?
Answer: 145 nM and 34.9 nM

Question: And the TGI (LOX IMVI melanoma)?
Answer: 1180 nM and 231 nM

Question: What about the TGI (M19-MEL melanoma) of the same molecule?
Answer: 2100 nM and 1900 nM

Question: And the GI50 (RPMI-8226 leukemia)?
Answer: 151 nM and 54 nM

Question: What about the TGI (RPMI-8226 leukemia) of the same molecule?
Answer: 2820 nM and 465 nM

Question: And the GI50 (RXF 393 renal)?
Answer: 185 nM and 399 nM

Question: What about the TGI (RXF 393 renal) of the same molecule?
Answer: 768 nM and 927 nM

Question: And the GI50 (SN12C renal)?
Answer: 1850 nM

Question: And the TGI (SN12C renal)?
Answer: 3890 nM

Question: What about the GI50 (U251 CNS) of the same molecule?
Answer: 115 nM and 26 nM

Question: And the TGI (U251 CNS)?
Answer: 594 nM and 183 nM

Question: What about the GI50 (SNB-75 CNS) of the same molecule?
Answer: 32.4 nM and 218 nM

Question: What about the TGI (SNB-75 CNS) of the same molecule?
Answer: 1790 nM and 636 nM

Question: What about the GI50 (XF 498 CNS) of the same molecule?
Answer: 377 nM and 132 nM

Question: What about the TGI (XF 498 CNS) of the same molecule?
Answer: 2340 nM and 1400 nM

Question: What about the TGI (KM20L2 colon) of the same molecule?
Answer: 3280 nM and 841 nM

Question: And the TGI (DLD-1 colon)?
Answer: 3110 nM and 2260 nM

Question: And the TGI (SNB-19 CNS)?
Answer: 22400 nM and 2940 nM

Question: What about the TGI (HL-60(TB) leukemia) of the same molecule?
Answer: 200 nM and 54.8 nM

Question: What about the GI50 (DMS 114 small cell lung) of the same molecule?
Answer: 169 nM and 63.9 nM

Question: And the TGI (DMS 114 small cell lung)?
Answer: 1960 nM and 316 nM

Question: What about the GI50 (SK-MEL-5 melanoma) of the same molecule?
Answer: 206 nM and 73.9 nM

Question: And the TGI (SK-MEL-5 melanoma)?
Answer: 1400 nM and 373 nM

Question: What about the GI50 (K-562 leukemia) of the same molecule?
Answer: 266 nM and 122 nM

Question: What about the TGI (K-562 leukemia) of the same molecule?
Answer: 12800 nM and 2840 nM

Question: What about the TGI (A498 renal) of the same molecule?
Answer: 498 nM

Question: And the GI50 (DMS 273 small cell lung)?
Answer: 114 nM and 21.9 nM

Question: And the TGI (DMS 273 small cell lung)?
Answer: 558 nM and 180 nM

Question: And the GI50 (786-0 renal)?
Answer: 161 nM and 33.3 nM

Question: What about the TGI (786-0 renal) of the same molecule?
Answer: 668 nM and 221 nM

Question: What about the GI50 (SNB-78 CNS) of the same molecule?
Answer: 2040 nM and 887 nM

Question: And the TGI (SNB-78 CNS)?
Answer: 6030 nM and 8240 nM

Question: What about the GI50 (UACC-62 melanoma) of the same molecule?
Answer: 217 nM and 35.9 nM
